Patent US11472766B2, “Lipid nanoparticle composition” (Suzhou Abogen Biosciences Co., Ltd., priority 2020, dated 2022)
Values belong to the compound of their own block, whether it stands above or below them.

Tests used:
[1] = system: human erythropoietin (hEPO) mRNA; assay: Animal study: hEPO expression after tail vein injection of LNPs encapsulating hEPO mRNA (serum ELISA); type: in vivo; settings: hEPO level, female ICR mice, 0.5 mg/kg, 6 hours post administration; for Expression at 6 h: Table 2
In short: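 Female ICR mice (6-8 weeks) received LNPs carrying hEPO mRNA by tail vein injection at 0.5 mg/kg, with MC3 LNPs dosed the same way as positive control. Blood was drawn at set times (e.g., 6 h) and serum separated. hEPO was quantified by ELISA and reported as μg/ml.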

[2] = Lipid nanoparticle size by dynamic light scattering (Malvern Zetasizer Nano ZS); type: physicochemical; settings: LNP: cationic lipid/DSPC/cholesterol/PEG-lipid 50:10:38.5:1.5, hEPO mRNA
In short: (§1)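 LNPs of cationic lipid:DSPC:cholesterol:PEG-lipid (50:10:38.5:1.5 molar) with mRNA in 10–50 mM citrate pH 4, microfluidic mixing at 1:3 ethanol:aqueous, lipid:mRNA weight ratio ~10:1–30:1, dialysed into DPBS and 0.2 μm filtered. Size by DLS, 173° backscatter; encapsulation efficiency by Ribogreen assay.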

[3] = Encapsulation efficiency of lipid nanoparticles (Quant-it Ribogreen RNA quantification assay); type: physicochemical; settings: LNP encapsulating hEPO mRNA
In short: as §1

[4] = Apparent pKa of LNP formulations (TNS fluorescence assay); settings: LNP cationic lipid/DSPC/cholesterol/DMG-PEG 50/10/38.5/1.5 mol %

polydispersity ([2]; Table 3): 0.035
size nm ([2]; Table 3): 64.39 nm
Encapsulation Efficiency ([3]; Table 3): 98.4%
Apparant Pka ([4]; Table 3): 6.797
Structure (SMILES): CCCCCCCCC(CCCCCC)COC(=O)NCCCCN(CCCCNC(=O)OCC(CCCCCC)CCCCCCCC)CCN(CCO)C1CCC1 (stereo not shown) [Compound 155]
Expression at 6 h (μg/ml) ([1]; class symbols, Table 3): B (≥1 and <2)

Structure (SMILES): CCCCCCCCC(CCCCCC)COC(=O)CCCCCN(CCCCCC(=O)OCC(CCCCCC)CCCCCCCC)CCNCCO (stereo not shown) [Compound A]
Expression at 6 h [1]: 0.01 µg/mL
polydispersity ([2]; Table 2): 0.108
size nm ([2]; Table 2): 58.5 nm
Encapsulation Efficiency ([3]; Table 2): 100.0%
Apparant Pka ([4]; Table 2): 6.96

Structure (SMILES): CCCCCCCCC(CCCCCC)COC(=O)CCCCCN(CCCCCC(=O)OCC(CCCCCC)CCCCCCCC)CCN(C)CCO (stereo not shown) [Compound B]
Expression at 6 h [1]: 0.44 µg/mL
polydispersity ([2]; Table 2): 0.060
size nm ([2]; Table 2): 79.0 nm
Encapsulation Efficiency ([3]; Table 2): 100.0%
Apparant Pka ([4]; Table 2): 7.33

Structure (SMILES): CCCCCCCCC(CCCCCC)COC(=O)CCCCCN(CCCCCC(=O)OCC(CCCCCC)CCCCCCCC)CCN(CCO)CCCC (stereo not shown) [Compound C]
Expression at 6 h [1]: 2.95 µg/mL
polydispersity ([2]; Table 2): 0.061
size nm ([2]; Table 2): 65.0 nm
Encapsulation Efficiency ([3]; Table 2): 96.9%
Apparant Pka ([4]; Table 2): 6.46

Structure (SMILES): CCCCCCCCC(CCCCCC)COC(=O)CCCCCN(CCCCCC(=O)OCC(CCCCCC)CCCCCCCC)CCN(CCO)CCCCCC (stereo not shown) [Compound D]
Expression at 6 h [1]: 1.02 µg/mL
polydispersity ([2]; Table 2): 0.118
size nm ([2]; Table 2): 59.2 nm
Encapsulation Efficiency ([3]; Table 2): 95.5%
Apparant Pka ([4]; Table 2): 6.28
